Measurements published in patent US20040097555A1, “Concomitant drugs” (priority 2000, published 2004).

Legend:
human p38 MAP kinase = target: T1, human p38 MAP kinase (Homo sapiens, UniProt Q16539); test: Measurement of the enzyme inhibitory activity of active form p38 MAP kinase (32P uptake into Myelin Basic Protein), Reference Example C1; format: biochemical; conditions: concentration inhibiting uptake of 32P into acid insoluble fraction (Myelin Basic Protein) by 50%, Table 45
T1 construct: FLAG (N); made in house; host or cells: Sf-21 insect cells, baculovirus (BAC-HP38 co-infected with BAC-caMKK3)
T1 sequence (Q16539 whole entry): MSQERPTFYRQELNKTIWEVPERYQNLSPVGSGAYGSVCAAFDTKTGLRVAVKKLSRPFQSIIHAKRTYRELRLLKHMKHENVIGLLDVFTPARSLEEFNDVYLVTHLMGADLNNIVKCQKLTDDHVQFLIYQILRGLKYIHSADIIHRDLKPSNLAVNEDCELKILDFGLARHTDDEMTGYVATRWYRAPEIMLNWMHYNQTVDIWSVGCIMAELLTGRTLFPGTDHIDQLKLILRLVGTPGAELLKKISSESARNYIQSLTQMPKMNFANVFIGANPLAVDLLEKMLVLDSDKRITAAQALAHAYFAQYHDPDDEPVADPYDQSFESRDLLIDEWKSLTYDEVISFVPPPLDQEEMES
Description: (1) Cloning of Human p38 MAP Kinase Gene and Preparation of Recombinant Baculovirus
Cloning of human p38 MAP kinase gene was performed by a PCR method using a primer set P38-U: 5′-[…]-3′ [SEQ ID NO:1] and PAG-L: 5′-[…]-3′ [SEQ ID NO:2] made by the use of kidney cDNA (Toyobo, QUICK-Clone cDNA) as a template and referring to the base sequence of p38 MAP kinase gene reported by Han et al. (Science 265 (5173), 808-811 (1994)).
(2) Cloning of Human MKK3 Gene and Preparation of Recombinant Baculovirus
(3) Preparation of Active Form p38 MAP Kinase
The Sf-21 cells were seeded on 100 mL Sf-900II SFM medium (GIBCOBRL) to 1×10^6 cells/mL and cultured at 27° C. for 24 hours. After each 0.2 mL of the virusstock BAC-HP38 and BAC-caMKK3 of recombinant baculovirus were added, the culturing was further performed for 48 hours. After the cells were separated from the culturing solution by centrifugation (3000 rpm, 10 min), the cells were washed twice with PBS. After the cells were suspended in 10 ml Lysis buffer (25 mM HEPES (pH 7.5), 1% Triton X, […], 1 mM EDTA, 1 mM DTT, 25 mM β-glycerophosphate, […], 1 mM APMSF, 1 mM Sodium orthovanadate), the cells were lysed by treating twice in a homogenizer (POLYTRON) at 20000 rpm for 2 minutes. From the supernatant obtained by centrifugation (40000 rpm, 45 minutes), active form p38 MAP kinase was purified using Anti-FLAG M2 Affinity Gel (Eastman Chemical).
(4) Measurement of the Enzyme Inhibitory Activity
2.5 μL of a test compound dissolved in DMSO was added to 37.5 μL reaction solution (25 mM HEPES (pH 7.5), 10 mM Magnesium Acetate) containing 260 ng active form p38 MAP kinase and 1 μg Myelin Basic Protein, which was maintained at 30° C. for 5 minutes. The reaction was initiated by adding […] ATP solution (2.5 μM ATP, 0.1 μCi [g-^32P]ATP). After the reaction was performed at 30° C. for 60 minutes, the reaction was stopped by adding 50 μL 20% TCA solution. After the reaction solution was allowed to stand at 0° C. for 20 minutes, an acid insoluble fraction was transferred to GF/C filter (Packard Japan) using Cell Harvester (Packard Japan) and washed with 250 mM H3PO4. After drying at 45° C. for 60 minutes, 40 μL Microscint 0 (Packard Japan) was added and the radioactivity was measured with a TopCount (Packard Japan). The concentration (IC50 value) of the test compound necessary for inhibiting uptake of ^32P into an acid insoluble fraction by 50% was calculated with PRISM 2.01 (Graphpad Software).

[1] = system: TNF-α production in THP-1 cells; test: Measurement of inhibiting activity of TNF-α production in LPS-stimulated THP-1 cells (ELISA), Experimental Example C2; format: cell-based; conditions: Homo sapiens, concentration inhibiting TNF-α production by 50%, LPS 5 μg/mL, 4 hour, Table 46
Description: (§1) Measurement of inhibiting activity of TNF-α production
After THP-1 cells which had been cultured on PRMI 1640 medium (manufactured by Life Technologies, Inc.) containing 1% inactivated bovine fetal serum (manufactured by Life Technologies, Inc., U.S.A.) and 10 mM HEPES (pH 7.5) seeded on a 96-well plate to 1×10^5 cells/well, 1 μL test compound dissolved in DMSO was added. After incubation at 37° C. for 1 hour in a CO2 incubator, LPS (Wako Pure Chemicals) was added to the final concentration 5 μg/mL. After cultured at 37° C. for 4 hour in a CO2 incubator, the supernatant was obtained by centrifugation. The concentration of TNF-α in the supernatant was measured by ELISA (R&D Systems, Quantikine Kit). The concentration (IC50 value) of the test compound necessary for inhibiting TNF-α production by 50% was calculated using PRIMS 2.01 (Graphpad Software).

[2] = system: TNF-α production in THP-1 cells; test: Measurement of inhibiting activity of TNF-α production in LPS-stimulated THP-1 cells (ELISA), Reference Example F3; format: cell-based; conditions: Homo sapiens, LPS 5 μg/mL, 4 hours, read-out: IC50 (concentration necessary for inhibiting TNF-α production by 50%)
Description: as §1
After THP-1 cells which had been cultured in PRMI 1640 medium (manufactured by Life Technologies, Inc.) containing 1% non-activated bovine fetal serum (manufactured by Life Technologies, Inc., U.S.A.) and 10 mM HEPES (pH 7.5) seeded on a 96-well plate to 1×10^5 cells/well, 1 μL test compound dissolved in DMSO was added to there. After incubation at 37° C. for 1 hour in a CO2 incubator, LPS (Wako Pure Chemicals) was added to the final concentration 5 μg/mL. After cultured at 37° C. for 4 hours in a CO2 incubator, the supernatant was obtained by centrifugation. The concentration of TNF-α in the supernatant was measured with ELISA (R&D System, Quantikine Kit). The concentration (IC50 value) necessary for inhibiting TNF-α production by 50% was calculated by PRIMS 2.01 (Graphpad Software).

Row | SMILES | melting point | IC50 (human p38 MAP kinase) | also measured
1 | COc1ccc(-c2nc(N)sc2-c2cccnc2)cc1.Cl | 145 to 150 °C |  | 
2 | Cc1cccc(-c2nc(N)sc2-c2ccncc2)c1 [23-60, [4-(3-methylphenyl)-5-(4-pyridyl)-1,3-thiazol-2-yl]amine] |  |  | IC50 [1]: 0.046 µM
3 | COc1ccc(-c2nc(N)sc2-c2cccnc2)cc1 [Reference Example A 8, [4-(4-methoxyphenyl)-5-(3-pyridyl)-1,3-thiazol-2-yl]amine] | 265 to 266 °C |  | 
4 | CNc1nc(-c2ccc(OC)cc2)c(-c2cccnc2)s1 [Reference Example A 9, N-methyl [4-(4-methoxyphenyl)-5-(3-pyridyl)-1,3-thiazol-2-yl]amine] | 158 to 159 °C |  | 
5 | Cc1cccc(-c2nc(-c3ccc(S(C)(=O)=O)cc3)sc2-c2ccnc(S(=O)(=O)c3ccccc3)c2)c1 [Reference Example D 28, 4-(3-methylphenyl)-2-(4-methylsulfonylphenyl)-5-(2-phenylsulfonyl-4-pyridyl)-1,3-thiazole] | 90 to 91 °C |  | 
6 | Cc1cc(C)cc(-c2nc(N)sc2-c2ccnc(NC(=O)c3ccccc3)c2)c1 [compound 5] |  |  | IC50 [2]: 0.02 µM

Now from value to compound, other results behind:

Row | melting point | IC50 (human p38 MAP kinase) | SMILES | also measured
7 |  | 0.086 µM | COc1ccc(-c2nc(N)sc2-c2ccncc2)cc1 [13-14, [4-(4-methoxyphenyl)-5-(4-pyridyl)-1,3-thiazol-2-yl]amine] | 
8 |  | 0.081 µM | Nc1nc(-c2ccccc2)c(-c2ccncc2)s1 [13-15, [4-phenyl-5-(4-pyridyl)-1,3-thiazol-2-yl]amine] | 
9 |  | 0.06 µM | CNc1nc(-c2ccc(OC)cc2)c(-c2ccncc2)s1 [13-16, N-methyl [4-(4-methoxyphenyl)-5-(4-pyridyl)-1,3-thiazol-2-yl]amine] | 
10 |  | 0.026 µM | CNc1nc(-c2ccc(Cl)cc2)c(-c2ccncc2)s1 [13-70, N-methyl [4-(4-chlorophenyl)-5-(4-pyridyl)-1,3-thiazol-2-yl]amine] | 
11 | 135 to 137 °C |  | Fc1ccc(-c2nc(-c3ccccc3)sc2-c2ccncc2)cc1 [44-1, 4-(4-fluorophenyl)-2-phenyl-5-(4-pyridyl)-1,3-thiazole] | 
